Experiment [1] relates to E. coli ATCC 11775 biofilm. As to the kind of experiment: Biofilm inhibition (MBIC), Syto 9 imaging. In kind it is cell-based. The method, then:
(§1) FIGS. 1A and 1B show biofilm inhibition by butyl phosphoramidate (BPA), sodium dodecylbenzenesulfonate (SDBS), and 4-Dodecylbenzenesulfonic acid (DBSA) against Staphylococcus aureus ATCC 12600 and E. coli ATCC 11775, which was determined by (A) measuring total intensity with Ex/Em (nm): 456/541 and (B) staining biofilm with Syto 9 green-fluorescent nucleic acid stain. Biofilm images appear white and gray and images without biofilm appear black. Images of untreated biofilm, sub-MBIC, and MBIC were taken using MiniMax 300 Imaging Cytometer (Molecular Devices).
(§2) Imaging. Biofilm inhibition imaging was determined by growing biofilm in a black-walled optically-clear bottom 96 well plate at a 45° angle to promote biofilm formation prior to imaging. Biofilm was stained with Syto 9 green fluorescent live and dead nucleic acid stain and measuring total intensity with excitation/emission (nm): 456/541. Images of biofilm were taken using MiniMax 300 Imaging Cytometer (Molecular Devices).

The test system of experiment [2] is Staphylococcus aureus VRSA VRS7 NR-46417. As to the kind of experiment: MIC broth microdilution, compounds and antibiotics alone and in combination. Format: cell-based. Conditions: for MIC: Staphylococcus aureus, read-out: Minimum Inhibitory Concentration (MIC). The protocol: (§3) Antibiotic and Antibiofilm Susceptibility Tests. Minimum inhibitory concentration (MIC) broth microdilution method was performed according to CLSI guidelines (CLSI M07-A10: Methods for Dilution Antimicrobial Susceptibility Tests for Bacteria that Grow
(§4) Aerobically; Approved Standard-Tenth Edition). Minimum bactericidal concentration (MBC) was performed according to CLSI guidelines (CLSI M26-A: Methods for Determining Bactericidal Activity of Antimicrobial Agents; Approved Guideline).
(§5) The antibiotic resistance breakpoints were defined according to the recommendations of the Clinical and Laboratory Standards Institute (CLSI M07-A10: Methods for Dilution Antimicrobial Susceptibility Tests for Bacteria That Grow Aerobically; Approved Standard-Tenth Edition).
Four antibiotics (penicillin G, methicillin, gentamycin, and vancomycin) were tested in combination with SDBS and DBSA, by using a checkerboard methodology against MRSA ATCC 33591 (methicillin-R, gentamicin-R; penicillin-R) and VRSA VRS7 BEI NR-46417 (methicillin-R, gentamicin-R; penicillin-R, vancomycin-R). The combinations were assessed by fractional inhibitory concentration indices (FICIs) and the fold reduction of the MIC (“potentiation factor”) was calculated. In clinical terms, a potentiator enhances the action of a drug.
For orientation: Broth dilution looks for growth in wells or tubes with falling amounts of substance.

The test system of a further experiment is B. cepacia biofilm. As to the kind of experiment: Biofilm inhibition (MBIC). Format: cell-based, Burkholderia cepacia. The method, then: as §2
The subject of experiment [3] is Staphylococcus aureus MRSA ATCC 33591. As to the kind of experiment: MIC broth microdilution, compounds and antibiotics alone and in combination. Particulars: for Minimum Inhibitory Concentration (MIC) / MIC: alone, or antibiotic with SDBS/DBSA at sub-MIC concentration; for MIC: Staphylococcus aureus, read-out: Minimum Inhibitory Concentration (MIC). Format: cell-based. The protocol:
as §3, §4, §5
Four antibiotics (penicillin G, methicillin, gentamycin, and vancomycin) were tested in combination with SDBS and DBSA, by using a checkerboard methodology against MRSA ATCC 33591 (methicillin-R, gentamicin-R; penicillin-R) and VRSA VRS7 BEI NR-46417 (methicillin-R, gentamicin-R; penicillin-R, vancomycin-R). The combinations were assessed by fractional inhibitory concentration indices (FICIs) and the fold reduction of the MIC (“potentiation factor”) was calculated. In clinical terms, a potentiator enhances the action of a drug. SDBS and […] potentiate methicillin, gentamicin, penicillin, and vancomycin activity against MRSA and VRSA making MRSA and VRSA sensitive to those antibiotics (Table 13).

The subject of experiment [4] is S. aureus ATCC 6358 biofilm. As to the kind of experiment: Minimum biofilm eradicating concentration (MBEC) assay, ASTM E2799-12. In kind it is cell-based, Staphylococcus aureus. The method, then:
Data corresponds to 4.4-Log reduction.
Minimum biofilm eradicating concentration (MBEC) was performed according to the ASTM standard (ASTM E2799-12; Standard Test Method for Testing Disinfectant Efficacy against Pseudomonas aeruginosa Biofilm using the MBEC Assay). Assays were performed in quadruplicates on more than one occasion.

Experiment [5] relates to P. aeruginosa type 2 mucoid ATCC 33468. Kind of experiment: MIC broth microdilution. Format: cell-based, Pseudomonas aeruginosa. The protocol: as §3, §4
The subject of experiment [6] is S. aureus ATCC 12600 biofilm. Kind of experiment: Biofilm inhibition (MBIC), Syto 9 imaging. Format: cell-based, Staphylococcus aureus. The protocol:
as §1, §2

Where [7] appears, read: VRSA VRS7 NR-46417, alone, or antibiotic with SDBS/DBSA at sub-MIC concentration.

Several values for one entry are separate records, joined by “and”; a condition that tells them apart may be missing. Identical values can stand only once. Like-named read-outs stand apart in the source and are kept apart here.

As to butyl phosphoramidate [BPA], the “MBIC (inhibition of biofilm formation)” value (in experiment [1]; in the experiment with B. cepacia biofilm; in experiment [6]) was 50 µg/mL in each case. In addition, the “Minimum Inhibitory Concentration (MIC)” value in experiment [2] (setting [7]) was 25 µg/mL and 12.5 µg/mL; in experiment [3], 25 µg/mL and 12.5 µg/mL; in experiment [5] it was 25 µg/mL and 12.5 µg/mL. The “Log reduction of viable cells” value in experiment [4] (after 10 minutes of exposure) stood at 4.4 Log. This compound yielded a removal of biofilm in experiment [4] (after 10 minutes of exposure, colony counting CFU/ml) of 99.99%. Also, the “MBEC (removal of existing biofilm)” value in experiment [4] (demonstrated by Lonza) is less than 25 µg/mL.

For the compound `CC1(C)S[C@@H]2[C@H](NC(=O)Cc3ccccc3)C(=O)N2[C@H]1C(=O)O` [Penicillin, penicillin G], the MIC is 11.3 µg/mL in experiment [2] (setting [7]) and greater than 22.7 µg/mL in experiment [3]. The “Resistant / sensitive by CLSI breakpoints” value (from here on “Resistant / sensitive”) in experiment [2] (VRSA VRS7 NR-46417) and in experiment [3] was “(R)” throughout.

With `CN[C@H](CC(C)C)C(=O)N[C@H]1C(=O)N[C@@H](CC(N)=O)C(=O)N[C@H]2C(=O)N[C@H]3C(=O)N[C@H](C(=O)N[C@H](C(=O)O)c4cc(O)cc(O)c4-c4cc3ccc4O)[C@H](O)c3ccc(c(Cl)c3)Oc3cc2cc(c3O[C@@H]2O[C@H](CO)[C@@H](O)[C@H](O)[C@H]2O[C@H]2C[C@](C)(N)[C@H](O)[C@H](C)O2)Oc2ccc(cc2Cl)[C@H]1O` [Vancomycin, vancomycin], in experiment [2] (VRSA), the MIC was found to be 22.7 µg/mL. Moreover, the “Resistant / sensitive” value in experiment [2] (VRSA VRS7 NR-46417) is “(R)”.

As to gentamicin, the “Resistant / sensitive” value in experiment [2] (VRSA VRS7 NR-46417) and in experiment [3] was “(R)” in each case. Moreover, the “Minimum Inhibitory Concentration (MIC)” value is 22.7 µg/mL in experiment [2] (setting [7]) and greater than 45.4 µg/mL in experiment [3].

Turning to `CCCCCCCCCCCCOS(=O)(=O)[O-].[Na+]` [SDS, sodium dodecyl sulfate], the “MBIC (inhibition of biofilm formation)” value in experiment [6] was determined as 140 µg/mL.

Consider `CCCCCCCCCCCCc1ccc(S(=O)(=O)O)cc1` [DBSA, 4-Dodecylbenzenesulfonic acid], for which the MIC was greater than 20 µg/mL in experiment [2] (setting [7]) and 19 µg/mL in experiment [3]. Further, the “MBIC (inhibition of biofilm formation)” value in experiment [6] amounted to 100 µg/mL.

As for `COc1cccc(OC)c1C(=O)N[C@@H]1C(=O)N2[C@@H]1SC(C)(C)[C@@H]2C(=O)O` [Methicillin, methicillin], the MIC in experiment [2] (setting [7]) and in experiment [3] was greater than 22.7 µg/mL in each case. The “Resistant / sensitive” value in experiment [2] (VRSA VRS7 NR-46417) and in experiment [3] was “(R)” in each case.
